Assay results reported in a compilation of properties of binary mixtures (doi:10.1007/s10953-009-9410-7).

Experiment: xn = mol fraction of the nth substance listed
Conditions: 101 kPa

CCCC[n+]1ccn(C)c1.N#C[S-] + CCCCCCO
viscosity [mPa·s]
Conditions	298.15 K	308.15 K	318.15 K	328.15 K	338.15 K	348.15 K
x2 = 0	51.7	34.9	24.2	16.7	12.7	9.98
x2 = 0.0424	44.4	29.7	21	15.6	–	–
x2 = 0.1505	–	–	17.7	13.3	10.3	8.26
x2 = 0.3093	26.1	18.3	13.5	10.3	–	6.54
x2 = 0.453	18.2	–	9.87	7.65	–	4.92
x2 = 0.5773	13.8	10.2	7.71	6	–	3.88
x2 = 0.6307	12.1	9.01	–	5.39	4.3	3.51
x2 = 0.6962	10.3	7.67	5.87	–	3.67	3.04
x2 = 0.7583	8.77	6.54	4.98	–	3.18	2.65
x2 = 0.8512	6.83	5.15	3.99	–	2.57	2.1
x2 = 0.9102	5.87	–	–	2.69	2.17	1.77

CCCC[n+]1ccn(C)c1.N#C[S-] + CCCCCO
viscosity [mPa·s]
Conditions	298.15 K	308.15 K	318.15 K	328.15 K	338.15 K	348.15 K
x2 = 0	51.7	34.9	24.2	16.7	–	9.98
x2 = 0.0193	46.9	–	21.9	16.2	12.5	9.88
x2 = 0.1443	34.2	–	17	12.8	9.98	7.97
x2 = 0.2751	26	18.3	13.5	10.4	8.2	–
x2 = 0.3843	20	14.4	10.9	8.49	–	–
x2 = 0.487	15.5	11.4	8.74	6.84	5.48	4.47
x2 = 0.5557	12.7	9.5	–	5.74	4.61	3.78
x2 = 0.616	10.8	8.15	6.63	5.05	–	3.42
x2 = 0.7302	7.74	5.89	4.62	–	3.04	2.54
x2 = 0.7914	6.49	4.97	3.92	3.16	2.6	–
x2 = 0.856	5.38	4.14	3.27	2.63	2.16	1.8
x2 = 0.9135	4.56	–	2.77	2.22	1.81	–
